Literature values in US20230398111A1, “ORAL FORMULATIONS OF NINTEDANIB AND METHOD OF MANUFACTURING THEREOF” (BDR PHARMACEUTICALS INTERNATIONAL PRIVATE LIMITED, priority 2020, published 2023).

Details: neutral conditions / neutral pH

solubility: poor solubility
Structure (SMILES): COC(=O)c1ccc2c(c1)NC(=O)/C2=C(\Nc1ccc(N(C)C(=O)CN2CCN(C)CC2)cc1)c1ccccc1 [Nintedanib esylate, methyl-2-hydroxy-3-[N-[4-[methyl-[2-(4-methylpiperazin-1-yl)acetyl]amino]phenyl]-C-phenylcarbonimidoyl]-1H-indole-6-carboxylate ethanesulfonic acid]
